PMC12069442 (Frontiers in Pharmacology, 2025)
“Also recorded” adds a separate entry of the source. Counter-ions that a name gives are not always drawn.

system: rat liver microsomes (RLM); assay: Inhibitor screening on ziprasidone metabolism in RLM; format: in vitro ADME; details: 100 μM inhibitor, 0.3 mg/mL RLM, ziprasidone 10 μM, 20 min

| Compound | Relative activity (%) |
| --- | --- |
| CCOC(=O)C1=C(COCCN)NC(C)=C(C(=O)OC)C1c1ccccc1Cl (stereo not drawn) [Amlodipine] | 24.44 ± 2.51 |
| O=c1cc(-c2ccc(O)cc2)oc2cc(O)cc(O)c12 [Apigenin] | 31.41 ± 2.56 |
| CC(C)(O)[C@H]1CC[C@@](C)([C@H]2[C@@H](O)C[C@@]3(C)[C@@H]4C[C@H](O[C@@H]5O[C@H](CO)[C@@H](O)[C@H](O)[C@H]5O)[C@H]5C(C)(C)[C@@H](O[C@@H]6OC[C@@H](O)[C@H](O)[C@H]6O)CC[C@@]56C[C@@]46CC[C@]23C)O1 [Astragaloside A] | 107.37 ± 18.93 |
| CCOc1nc2cccc(C(=O)O)c2n1Cc1ccc(-c2ccccc2-c2nc(=O)o[nH]2)cc1 [Azilsartan] | 92.59 ± 5.86 |
| O=c1cc(-c2ccccc2)oc2cc(O)c(O)c(O)c12 [Baicalein] | 97.20 ± 18.86 |
| O=C(O)[C@H]1O[C@@H](Oc2cc3oc(-c4ccccc4)cc(=O)c3c(O)c2O)[C@H](O)[C@@H](O)[C@@H]1O [Baicalin] | 87.83 ± 13.63 |
| CCCCN1CCCCC1C(=O)Nc1c(C)cccc1C (stereo not drawn) [Bupivacaine hydrochloride] | 104.14 ± 92.28 |
| COc1ccc(-c2coc3cc(O)ccc3c2=O)cc1O [Calycosin] | 104.22 ± 12.51 |
| CCOc1nc2cccc(C(=O)O)c2n1Cc1ccc(-c2ccccc2-c2nnn[nH]2)cc1 [Candesartan] | 54.29 ± 3.95 |
| COc1ccccc1OCCNCC(O)COc1cccc2[nH]c3ccccc3c12 (stereo not drawn) [Carvedilol] | 29.89 ± 3.28 |
| O=C(/C=C/c1ccc(O)c(O)c1)O[C@@H]1C[C@](O)(C(=O)O)C[C@@H](O)[C@H]1O [Chlorogenic acid] | 91.52 ± 17.97 |
| O=c1cc(-c2ccccc2)oc2cc(O)cc(O)c12 [Chrysin] | 36.09 ± 19.09 |
| O=C1CCc2cc(OCCCCc3nnnn3C3CCCCC3)ccc2N1 [Cilostazol] | 55.05 ± 0.99 |
| Clc1cccc(Cl)c1N=C1NCCN1 [Clonidine hydrochloride] | 74.70 ± 0.47 |
| COC(=O)[C@H](c1ccccc1Cl)N1CCc2sccc2C1 [Clopidogrel hydrogen sulfate] | 179.48 ± 15.80 |
| C[C@@H]1C(=O)O[C@H](C)[C@H]1C[C@@H](O)[C@](C)(O)[C@H]1CC[C@@]2(O)C3=CC(=O)[C@@H]4C[C@@H](O)[C@@H](O)C[C@]4(C)[C@H]3CC[C@]12C [Cyasterone] | 83.75 ± 6.16 |
| O=c1c(-c2ccc(O)cc2)coc2cc(O)ccc12 [Daidzein] | 121.70 ± 5.16 |
| CCCCc1oc2ccc(NS(C)(=O)=O)cc2c1C(=O)c1ccc(OCCCN(CCCC)CCCC)cc1 [Dronedarone Hydrochloride] | 23.67 ± 11.05 |
| Cc1cc(O)c2c(c1)C(=O)c1cc(O)cc(O)c1C2=O [Emodin] | 25.64 ± 3.15 |
| CC(C)(O)CNc1nc(Nc2ccnc(C(F)(F)F)c2)nc(-c2cccc(C(F)(F)F)n2)n1 [Enasidenib] | 40.44 ± 1.29 |
| CCOC(=O)C1=C(C)NC(C)=C(C(=O)OC)C1c1cccc(Cl)c1Cl (stereo not drawn) [Felodipine] | 28.36 ± 1.67 |
| COc1cc2ncnc(Nc3ccc(F)c(Cl)c3)c2cc1OCCCN1CCOCC1 [Gefitinib] | 36.20 ± 0.61 |
| CCCCC1=NC2(CCCC2)C(=O)N1Cc1ccc(-c2ccccc2-c2nnn[nH]2)cc1 [Irbesartan] | 72.41 ± 4.72 |

| Compound | Relative activity (%) |
| --- | --- |
| CCN(CC)CC(=O)Nc1c(C)cccc1C [Lidocaine] | 93.56 ± 10.94 |
| CCCCc1nc(Cl)c(CO)n1Cc1ccc(-c2ccccc2-c2nn[nH]n2)cc1 [Losartan potassium] | 35.58 ± 50.31 |
| CCCCc1nc(Cl)c(CO)n1Cc1ccc(-c2ccccc2-c2nn[nH]n2)cc1 [Losartan] | 74.09 ± 5.29 |
| O=C1CCC[C@@H]2[C@H]3CCCN4CCC[C@@H](CN12)[C@@H]34 [Matrine] | 98.65 ± 1.77 |
| O=c1c(O)c(-c2cc(O)c(O)c(O)c2)oc2cc(O)cc(O)c12 [Myricetin] | 2.64 ± 1.71 |
| OC(CNCC(O)C1CCc2cc(F)ccc2O1)C1CCc2cc(F)ccc2O1 (stereo not drawn) [Nebivolol Hydrochloride] | 63.48 ± 3.34 |
| COCCOC(=O)C1=C(C)NC(C)=C(C(=O)OC(C)C)C1c1cccc([N+](=O)[O-])c1 (stereo not drawn) [Nimodipine] | 49.68 ± 0.53 |
| COc1ccc(C(C)=O)c(O)c1 [Paeonol] | 108.77 ± 3.51 |
| CCN(CC)CCNC(=O)c1ccc(N)cc1 [Procainamide hydrochloride] | 113.37 ± 13.44 |
| C=C[C@H]1C[N@@]2CC[C@H]1C[C@@H]2[C@@H](O)c1ccnc2ccc(OC)cc12 [Quinidine] | 83.40 ± 4.78 |
| O=C(NC[C@H]1CN(c2ccc(N3CCOCC3=O)cc2)C(=O)O1)c1ccc(Cl)s1 [Rivaroxaban] | 102.37 ± 4.89 |
| CCCN1CCCC[C@H]1C(=O)Nc1c(C)cccc1C [Ropivacaine hydrochloride] | 102.42 ± 0.84 |
| C=C1C[C@@]23CC[C@H]4[C@@](C)(CCC[C@@]4(C)C(=O)O[C@@H]4O[C@H](CO)[C@@H](O)[C@H](O)[C@H]4O)[C@@H]2CC[C@]1(O[C@@H]1O[C@H](CO)[C@@H](O)[C@H](O)[C@H]1O)C3 [Rubusoside] | 103.75 ± 2.05 |
| COc1cc2c(c(OC)c1OC)-c1c(cc(OC)c(OC)c1OC)C[C@H](C)[C@H](C)C2 [Schisandrin A] | 69.51 ± 11.79 |
| COc1cc(C2Oc3cc([C@H]4Oc5cc(O)cc(O)c5C(=O)[C@@H]4O)ccc3OC2CO)ccc1O (stereo partly drawn) [Silibinin] | 45.13 ± 1.52 |
| CCCc1nc2c(C)cc(-c3nc4ccccc4n3C)cc2n1Cc1ccc(-c2ccccc2C(=O)O)cc1 [Telmisartan] | 64.19 ± 12.39 |
| CCCSc1nc(N[C@@H]2C[C@H]2c2ccc(F)c(F)c2)c2nnn([C@@H]3C[C@H](OCCO)[C@@H](O)[C@H]3O)c2n1 [Ticagrelor] | 36.84 ± 20.49 |
| CC(C)[C@]12O[C@H]1[C@@H]1O[C@]13[C@]1(O[C@H]1C[C@H]1C4=C(CC[C@@]13C)C(=O)OC4)[C@@H]2O [Triptolide] | 87.47 ± 5.70 |
| CCCCC(=O)N(Cc1ccc(-c2ccccc2-c2nnn[nH]2)cc1)[C@H](C(=O)O)C(C)C [Valsartan] | 44.50 ± 62.94 |
| COc1cc(CCC(C)=O)ccc1O [Vanillylacetone] | 93.56 ± 3.00 |
| COc1c(O)cc(O)c2c(=O)cc(-c3ccccc3)oc12 [Wogonin] | 80.85 ± 12.40 |
| COc1c(O[C@@H]2O[C@H](C(=O)O)[C@@H](O)[C@H](O)[C@H]2O)cc(O)c2c(=O)cc(-c3ccccc3)oc12 [Wogonoside] | 92.55 ± 1.09 |
| Cucurbitacin B | 117.16 ± 18.74 |

same assay, conditions: 100 μM inhibitor, RLM

| Compound | suppression of the metabolism of ziprasidone |
| --- | --- |
| O=c1c(O)c(-c2ccc(O)c(O)c2)oc2cc(O)cc(O)c12 [quercetin, Quercetin] | over 80% |
| Oc1ccc(/C=C/c2cc(O)cc(O)c2)cc1 [resveratrol, Resveratrol] | over 80% |

system: rat liver microsomes (RLM); assay: Kinetics inhibitory assay of quercetin on ziprasidone metabolism in RLM; format: in vitro ADME; details: RLM

| Compound | α |
| --- | --- |
| O=c1c(O)c(-c2ccc(O)c(O)c2)oc2cc(O)cc(O)c12 [quercetin, Quercetin] | 0.96 |

same assay, conditions: RLM 0.3 mg/mL, ziprasidone 10 μM, quercetin 0–100 μM, n=3

| Compound | IC50 [µM] |
| --- | --- |
| O=c1c(O)c(-c2ccc(O)c(O)c2)oc2cc(O)cc(O)c12 [quercetin, Quercetin] | 13.8 ± 0.3 |

same assay, conditions: RLM, Lineweaver-Burk secondary plot

| Compound | Ki [µM] | αKi [µM] |
| --- | --- | --- |
| O=c1c(O)c(-c2ccc(O)c(O)c2)oc2cc(O)cc(O)c12 [quercetin, Quercetin] | 30.7 | 29.4 |

same assay, conditions: RLM, ziprasidone 2.5–20 μM, quercetin 0, 6.5, 13, 26 μM

| Compound | Inhibition type |
| --- | --- |
| O=c1c(O)c(-c2ccc(O)c(O)c2)oc2cc(O)cc(O)c12 [quercetin, Quercetin] | mixed inhibitory mechanism; also recorded: mixed inhibition |

system: human liver microsomes (HLM) (Homo sapiens); assay: Kinetics inhibitory assay of quercetin on ziprasidone metabolism in HLM; format: in vitro ADME; details: ziprasidone 2.5–20 μM, quercetin 0, 6.25, 12.5, 25 μM
Sequence (P08684 2-503): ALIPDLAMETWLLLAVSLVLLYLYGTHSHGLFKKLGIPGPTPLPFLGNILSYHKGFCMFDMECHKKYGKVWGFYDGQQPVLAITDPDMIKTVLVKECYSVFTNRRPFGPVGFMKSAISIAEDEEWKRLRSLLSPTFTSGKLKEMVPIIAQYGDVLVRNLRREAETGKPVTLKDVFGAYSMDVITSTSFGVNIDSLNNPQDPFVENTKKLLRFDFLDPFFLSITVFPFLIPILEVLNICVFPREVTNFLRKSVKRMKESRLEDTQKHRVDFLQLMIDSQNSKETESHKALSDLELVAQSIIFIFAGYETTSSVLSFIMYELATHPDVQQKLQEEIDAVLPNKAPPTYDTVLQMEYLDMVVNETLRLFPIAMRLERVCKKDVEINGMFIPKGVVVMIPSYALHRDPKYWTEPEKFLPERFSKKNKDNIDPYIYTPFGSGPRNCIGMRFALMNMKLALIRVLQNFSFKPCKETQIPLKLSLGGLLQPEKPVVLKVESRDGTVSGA

| Compound | Inhibition type |
| --- | --- |
| O=c1c(O)c(-c2ccc(O)c(O)c2)oc2cc(O)cc(O)c12 [quercetin, Quercetin] | mixed inhibitory mechanism; also recorded: mixed inhibition |

target: human liver microsomes (HLM) (Homo sapiens, UniProt P08684); assay: as above; format: in vitro ADME; details: not given
Sequence (P08684 2-503): as above

| Compound | α |
| --- | --- |
| O=c1c(O)c(-c2ccc(O)c(O)c2)oc2cc(O)cc(O)c12 [quercetin, Quercetin] | 0.21 |

same assay, conditions: Lineweaver-Burk secondary plot

| Compound | αKi [µM] |
| --- | --- |
| O=c1c(O)c(-c2ccc(O)c(O)c2)oc2cc(O)cc(O)c12 [quercetin, Quercetin] | 4.66 |

target: CYP3A4.1 (Homo sapiens, UniProt P08684); assay: not given; details: not given
Sequence (P08684 whole entry): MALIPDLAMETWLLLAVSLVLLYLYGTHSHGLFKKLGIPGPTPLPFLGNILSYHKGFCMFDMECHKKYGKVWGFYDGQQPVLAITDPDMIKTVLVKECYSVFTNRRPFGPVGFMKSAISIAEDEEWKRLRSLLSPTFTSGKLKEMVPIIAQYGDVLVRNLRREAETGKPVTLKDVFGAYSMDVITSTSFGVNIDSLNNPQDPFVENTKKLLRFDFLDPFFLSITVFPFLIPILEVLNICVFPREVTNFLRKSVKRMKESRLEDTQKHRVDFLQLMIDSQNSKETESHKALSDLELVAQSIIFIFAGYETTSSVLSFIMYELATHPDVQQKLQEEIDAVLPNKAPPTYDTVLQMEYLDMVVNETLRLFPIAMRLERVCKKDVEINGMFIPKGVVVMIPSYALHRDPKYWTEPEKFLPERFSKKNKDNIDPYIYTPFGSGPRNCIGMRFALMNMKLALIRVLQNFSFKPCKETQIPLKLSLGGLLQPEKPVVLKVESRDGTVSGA

| Compound | α | αKi [µM] |
| --- | --- | --- |
| O=c1c(O)c(-c2ccc(O)c(O)c2)oc2cc(O)cc(O)c12 [quercetin, Quercetin] | 0.66 | 10.06 |

system: not given; assay: not given; parameters: method as in Ye et al., 2024; details: nimodipine coadministration; ref Ye et al., 2024; cited from earlier work

| Compound | elevation of AUC | elevation of Cmax |
| --- | --- | --- |
| CCN1CCN(c2cc(-c3ccc(F)cc3)c3c(n2)CCCCCC3)CC1 [blonanserin] | more than 2 fold | more than 2 fold |
